This assay concerns 556581-035-R-J1-PDC complex spheroid viability. Nature of the assay: Anticancer human tumor 556581-035-R-J1-PDC patient-derived ovarian carcinoma cell line growth inhibition. Particulars: for viability, T/C: stronger effect = lower value; for IC50: curve of compound. The source says: Multicellular complex tumor spheroid response to LSD1 Inhibitor Iadademstat in combination with a variety of drugs and investigational agents in selected tumor cell lines
The current study was undertaken to assess response to LSD1 inhibitors in combination with standard-of-care drugs and investigational agents in solid tumor complex spheroid models as well as in the K-562 leukemia. Complex spheroids include a stromal component modeled by human endothelial cells (HUVEC) and fibroblasts modeled by human mesenchymal stem cells (MSCs). The concentration ranges selected for each drug and investigational agent were based upon clinically achievable concentrations if the clinical Cmax of the agent was known.
Compounds. The drugs and investigational agents used in this study are listed on Table 1. All of the agents used, including staurosporine (NSC755774) and gemcitabine (NSC613327), were obtained from the Developmental Therapeutics Program, NCI. FDA-approved anticancer drugs are available from the NCI at http://dtp.nci.nih.gov/branches/dscb/oncology_drugset_explanation.html. Drugs and investigational agents were >95% pure by proton nuclear magnetic resonance (NMR) and liquid chromatography/mass spectrometry (LC/MS). Stock solutions were prepared at 400x in DMSO, stored at -70 degrees C, and diluted in fresh medium prior to their use. The final concentration of DMSO in cell culture wells never exceeded 0.25% (v/v). The FDA-approved anticancer drug set is available from the Developmental Therapeutics Program at https://dtp.cancer.gov/organization/dscb/obtaining/available_plates.htm. All drugs and investigational agents were tested over a range starting from a high concentration at or near the clinical Cmax and decreasing in half-log increments. If the clinical Cmax for an agent had not been determined, the highest concentration tested was 10 microM.
Cell Lines. The patient-derived cancer cell (PDC) lines: 292921-168-R-J2-PDC, K24384-001-R-PDC, and 521955-158-R2-J5-PDC pancreatic carcinomas, 556581-035-R-J1 ovarian carcinoma, 324938-238-R-J1-PDC, 855422-203-R-J1-PDC and 883617-216-R-J1-PDC urothelial bladder carcinomas, 743489-274-T-PDC renal cell carcinoma, 138582-R-J1 Merkel cell tumor, K60290-347-R-J1 and K57222-313-R-J1-PDC glioblastomas, 653999-131-R-J2-PDC, LG0703-F948-PDC, and 349418-098-R-PDC non-small cell lung carcinomas, 885512-296-R-J2-PDC, 171881-019-R-J1-PDC breast carcinomas and 186277-243-T-J2-PDC and 233499-124-R-J2-PDC colon carcinomas were obtained from the NCI Patient-Derived Models Repository (PDMR, https://pdmr.cancer.gov). The established cell lines NCI/ADR-RES (RRID:CVCL_14520 and OVCAR-5 (RRID:CVCL_1628) ovarian carcinomas, 786-O (RRID:CVCL_1051) and A498 (RRID:CVCL_A498) renal cell carcinoma, NCI-H211 (ATCC, cat. CRL-5824; RRID:CVCL_1529), NCI-H196 (ATCC, cat. CRL-5823, RRID:CVCL_1509), SW 1271 (ATCC, cat. CRL-2177, RRID:CVCL_1716) and NCI-H1876 (ATCC, cat. CRL-5902, RRID:CVCL_1503) small cell lung carcinomas, MDA-MB-231 (RRID:CVCL_0062) and MDA-MB-468 (RRID:CVCL_0419)breast carcinomas (10-12). Pooled donor human umbilical vein endothelial cells (HUVEC, Lonza, cat. CC-2519) and human mesenchymal stem cells (hMSC, Lonza, cat. PT-2501) were purchased from Lonza (Walkersville, MD).
Cell Culture. All cells were maintained in an incubator at 37 degrees C and 5% CO2 with 95% humidity. The PDC lines were cultured according to standard operating procedures established by the NCI PDMR (https://pdmr.cancer.gov). Briefly all PDCs were thawed and cultured in Matrigel-coated flasks prepared with a working solution of 1X Ham's F-12 nutrient mix, without supplementation (Invitrogen, Waltham, MA, cat. 11765054), 100 U/mL penicillin-streptomycin (Invitrogen, cat. 15140122), and 2.5% Matrigel (Corning Inc., Corning, NY, cat. 354248) for the first three passages. […]

“And” between values parts separate entries of the source, which are not always exact repeats. Equal values may be shown once.

What is called viability, T/C is the result in the treated group divided by that in the control group, in per cent. A word on the IC50: it is the point on the concentration scale where inhibition reaches its midpoint.
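Also: spheroids exposed to agents for seven days.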

For the compound `CC(C)CC(NC(=O)C(Cc1ccccc1)NC(=O)c1cnccn1)B(O)O` (configuration not stated), the half-maximal inhibitory concentration (IC50) was below 0.316 nM. Further, the viability, T/C (compound 0.000316 µM) is 7.73% and 2.05%. Besides, the viability, T/C (compound 0.001 µM) was 0.26% and 0.43%. Besides, the viability, T/C (compound 0.00316 µM) is 1.04% and 0.46%. Also, the viability, T/C (compound 0.01 µM) is 0.22% and 0.28%. Moreover, for the setting “compound 0.0316 µM”, the viability, T/C was 0.85% and 0.24%. Moreover, where the note is “compound 0.1 µM”, the viability, T/C is 0.44% and 0.39%.
Regarding `CC(C)CC(NC(=O)CNC(=O)c1cc(Cl)ccc1Cl)B1OC(=O)CC(CC(=O)O)(C(=O)O)O1` (configuration not stated), the half-maximal inhibitory concentration (IC50) was 4.06 nM and 2.91 nM. Further, the viability, T/C (compound 0.000316 µM) was 99.8% and 102%. In addition, the viability, T/C (compound 0.001 µM) was 98.2% and 102%. Moreover, the viability, T/C (compound 0.00316 µM) was 63.3% and 46%. Besides, the viability, T/C (compound 0.01 µM) was 2.06% and 2.7%. Besides, the viability, T/C (compound 0.0316 µM) was 0.74% and 1.23%. Further, the viability, T/C (compound 0.1 µM) is 0.66% and 0.61%.
With `CC1(C)CCC(CN2CCN(c3ccc(C(=O)NS(=O)(=O)c4ccc(NCC5CCOCC5)c([N+](=O)[O-])c4)c(Oc4cnc5[nH]ccc5c4)c3)CC2)=C(c2ccc(Cl)cc2)C1`, the IC50 is 4470 nM and 5040 nM. Besides, the viability, T/C (compound 0.0316 µM) was 97.5% and 84.5%. Further, under “compound 0.1 µM”, the viability, T/C was 95.1% and 89.4%. Further, under “compound 0.316 µM”, the viability, T/C is 85.2% and 79.3%. Besides, the viability, T/C (compound 1 µM) is 81% and 90.1%. Moreover, the viability, T/C (compound 3.16 µM) is 68.8% and 79.1%. Besides, for the setting “compound 10 µM”, the viability, T/C was 13.5% and 7.08%.
Turning to `CC1COCCN1c1cc(-c2ccnn2C)c2ccnc(-c3ccn[nH]3)c2n1` (configuration not stated), the IC50 was 52.9 nM and 8.58 nM. For the same compound, the viability, T/C (compound 0.00316 µM) is 70% and 55.8%. For the same compound, the viability, T/C (compound 0.01 µM) was 65.8% and 55.1%. The viability, T/C (compound 0.0316 µM) was 51.8% and 34.4%. Besides, the viability, T/C (compound 0.1 µM) was 42.8% and 25.6%. Further, for the setting “compound 0.316 µM”, the viability, T/C was 36.3% and 26.9%. Moreover, the viability, T/C (compound 1 µM) was 14.7% and 9.75%.
As for `CCN(c1cc(-c2ccc(CN3CCOCC3)cc2)cc(C(=O)NCc2c(C)cc(C)[nH]c2=O)c1C)C1CCOCC1`, the IC50 was 2010 nM and 895 nM. For the setting “compound 0.00949 µM”, the viability, T/C was 101% and 102%. The viability, T/C (compound 0.03 µM) is 105% and 88.1%. The viability, T/C (compound 0.0949 µM) was 87.8% and 88.1%. Where the note is “compound 0.3 µM”, the viability, T/C is 81.4% and 79.2%. Moreover, the viability, T/C (compound 0.949 µM) is 60.2% and 46.9%. In addition, under “compound 3 µM”, the viability, T/C was 44.3% and 24.2%.
Turning to `CC[C@@]1(O)C(=O)OCc2c1cc1n(c2=O)Cc2cc3c(CN(C)C)c(O)ccc3nc2-1`, the concentration for half-maximal inhibition (IC50) was 15.2 nM and 6.17 nM. Moreover, the viability, T/C (compound 0.000316 µM) is 95.5% and 101%. Moreover, the viability, T/C (compound 0.001 µM) was 96.8% and 101%. In addition, where the note is “compound 0.00316 µM”, the viability, T/C is 78.7% and 73.8%. Moreover, the viability, T/C (compound 0.01 µM) is 57.1% and 32.2%. Besides, for the setting “compound 0.0316 µM”, the viability, T/C is 35.8% and 14%. Also, for the setting “compound 0.1 µM”, the viability, T/C was 10% and 7.12%.
With `CCc1c2c(nc3ccc(O)cc13)-c1cc3c(c(=O)n1C2)COC(=O)[C@]3(O)CC`, the 50% inhibitory concentration (IC50) was below 0.949 nM. The viability, T/C (compound 0.000949 µM) was 17.5% and 12%. For the same compound, the viability, T/C (compound 0.003 µM) is 11.2% and 9.45%. Besides, the viability, T/C (compound 0.00949 µM) is 2.19% and 1.59%. Moreover, for the setting “compound 0.03 µM”, the viability, T/C is 0.61% and 0.44%. Further, the viability, T/C (compound 0.0949 µM) is 0.29% and 0.42%. Besides, the viability, T/C (compound 0.3 µM) was 0.34% and 0.39%.
On to `COc1cc(C2c3cc4c(cc3C(OC3OC5COC(C)OC5C(O)C3O)C3COC(=O)C23)OCO4)cc(OC)c1O` (configuration not stated), for which the IC50 was 620 nM and 176 nM. Moreover, the viability, T/C (compound 0.00949 µM) is 89% and 94.3%. Moreover, the viability, T/C (compound 0.03 µM) was 82.8% and 76.5%. Also, the viability, T/C (compound 0.0949 µM) is 70% and 56.9%. Further, the viability, T/C (compound 0.3 µM) was 65.7% and 40.6%. Further, the viability, T/C (compound 0.949 µM) was 41.2% and 33.2%. The viability, T/C (compound 3 µM) was 23.5% and 15.7%.
In the case of `COc1cc(Nc2ncc3c(n2)-c2ccc(Cl)cc2C(c2c(F)cccc2OC)=NC3)ccc1C(=O)O`, the viability, T/C by setting is: (compound 0.00316 µM) 68.5% and 68.6%; (compound 0.01 µM) 67.9% and 49.6%; (compound 0.0316 µM) 78.5% and 43.2%; (compound 0.1 µM) 60.9% and 45.6%; (compound 0.316 µM) 51.1% and 41.2%; (compound 1 µM) 39.2% and 29.9%.

Values taken from PubChem BioAssay AID1918938 (Molecular Pharmacology Branch, DTP, NCI, 2023).
